The subject of test [1] is SW620 cells. The test is described as follows: In vitro cell cycle analysis assay (FACS DNA content). Format: cell-based, human. Conditions: 24 hours with compound. As to the method:
(d) In Vitro Cell Cycle Analysis Assay
This assay determines the ability of a test compound to arrest cells in specific phases of the cell cycle. Many different mammalian cell lines could be used in this assay and SW620 cells are included here as an example. SW620 cells were seeded at 7×10^5 cells per T25 flask (Costar) in 5 ml L-15 (5% FCS, 1% L-glutamine). Flasks were then incubated overnight in a humidified 37° C. incubator with 5% CO2. The following day, 5 μl of L-15 (5% FCS, 1% L-glutamine) carrying the appropriate concentration of test compound solubilised in DMSO was added to the flask. A no compound control treatments was also included (0.5% DMSO). The cells were then incubated for a defined time (24 hours) with compound. […]
Each sample was then syringed 10 times using 21-guage needle. The samples were then transferred to LPS tubes and DNA content per cell analysed by Fluorescence activated cell sorting (FACS) using a FACScan flow cytometer (Becton Dickinson). Typically 30,000 events were counted and recorded using CellQuest v1.1 software (Verity Software). Cell cycle distribution of the population was calculated using Modfit software (Verity Software) and expressed as percentage of cells with 2N (G0/G1), 2N-4N (S phase) and with 4N (G2/M) DNA content. […]

The next test has as its target T1, Aurora-A (Homo sapiens, UniProt O14965).
T1 construct: made in house; host or cells: Spodoptera frugiperda Sf21 insect cells (baculovirus)
T1 sequence (O14965 1-403): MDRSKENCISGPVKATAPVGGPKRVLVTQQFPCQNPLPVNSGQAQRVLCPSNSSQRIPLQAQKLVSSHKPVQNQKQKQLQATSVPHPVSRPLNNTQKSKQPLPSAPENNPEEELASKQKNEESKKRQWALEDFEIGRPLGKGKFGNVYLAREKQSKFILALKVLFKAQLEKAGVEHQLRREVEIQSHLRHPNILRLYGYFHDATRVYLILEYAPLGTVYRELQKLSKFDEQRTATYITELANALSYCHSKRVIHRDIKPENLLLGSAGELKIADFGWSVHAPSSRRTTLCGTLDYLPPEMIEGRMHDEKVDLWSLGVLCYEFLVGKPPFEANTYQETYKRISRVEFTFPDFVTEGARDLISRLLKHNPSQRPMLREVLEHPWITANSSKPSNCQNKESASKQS
The test is described as follows: In vitro Aurora-A kinase inhibition test. The test is classed as biochemical.

A further test has as its target T2, Aurora-B (Homo sapiens, UniProt Q96GD4).
T2 construct: 6-histidine; made in house; host or cells: Spodoptera frugiperda Sf21 insect cells (baculovirus)
The test is described as follows: In vitro Aurora-B kinase inhibition test. Format: biochemical. Conditions: recombinant Aurora-B, 33P-ATP peptide substrate, 60 minutes room temperature; read-out: concentration giving 50% inhibition of enzyme activity. An excerpt: (b) In Vitro Aurora-B Kinase Inhibition Test
This assay determines the ability of a test compound to inhibit serine-threonine kinase activity. DNA encoding Aurora-B may be obtained by total gene synthesis or by cloning. This DNA may then be expressed in a suitable expression system to obtain polypeptide with serine-threonine kinase activity. In the case of Aurora-B, the coding sequence was isolated from cDNA by polymerase chain reaction (PCR) and cloned into the pFastBac system in a manner similar to that described above for Aurora-A (i.e. to direct expression of a 6-histidine tagged Aurora-B protein).
For the large scale expression of Aurora-B kinase activity, Sf21 insect cells were grown at 28° C. in TC100 medium supplemented with 10% foetal calf serum (Viralex) and 0.2% F68 Pluronic (Sigma) on a Wheaton roller rig at 3 r.p.m. When the cell density reached 1.2×10^6 cells ml^−1 they were infected with plaque-pure Aurora-B recombinant virus at a multiplicity of infection of 1 and harvested 48 hours later. All subsequent purification steps were performed at 4° C. […]

In test [2] the test system is SW620 cells. The test is described as follows: In vitro cell proliferation assay (BrdU incorporation). Format: cell-based. Conditions: Homo sapiens, SW-620, 48 hours with compound, 2 hour BrdU labelling, read-out: concentration active in test (50% inhibition of BrdU incorporation). From the text:
(c) In Vitro Cell Proliferation Assay
This and other assays can be used to determine the ability of a test compound to inhibit the growth of adherent mammalian cell lines, for example the human tumour cell line SW620 (ATCC CCL-227). This assay determines the ability of at test compound to inhibit the incorporation of the thymidine analogue, 5′-bromo-2′-deoxy-uridine (BrdlD into cellular DNA. SW620 or other adherent cells were typically seeded at 1×10^5 cells per well in L-15 media (GIBCO) plus 5% foetal calf serum, 1% L-glutamine (100 μl /well) in 96 well tissue culture treated 96 well plates (Costar) and allowed to adhere overnight. The following day the cells were dosed with compound (diluted from 10 mM stock in DMSO using L-15 (with 5% FCS, 1% L-glutamine). Untreated control wells and wells containing a compound known to give 100% inhibition of BrdU incorporation were included on each plate. After 48 hours in the presence/absence of test compound the ability of the cells to incorporate BrdU over a 2 hour labelling period was determined using a Boelringer (Roche) Cell Proliferation BrdU ELISA kit (cat. No. 1 647 229) according to manufacturers directions. […] The optical density of the wells was then determined at 690 nm wavelength using a Titertek Multiscan plate reader. […]
(In general: Uptake of a labelled nucleoside into DNA is a usual measure of proliferation.)

This is an account of results in patent publication US20060058325A1, “Therapeutic quniazoline derivatives” (AstraZeneca AB, priority 2002, published 2006).

T2 sequence (Q96GD4 whole entry): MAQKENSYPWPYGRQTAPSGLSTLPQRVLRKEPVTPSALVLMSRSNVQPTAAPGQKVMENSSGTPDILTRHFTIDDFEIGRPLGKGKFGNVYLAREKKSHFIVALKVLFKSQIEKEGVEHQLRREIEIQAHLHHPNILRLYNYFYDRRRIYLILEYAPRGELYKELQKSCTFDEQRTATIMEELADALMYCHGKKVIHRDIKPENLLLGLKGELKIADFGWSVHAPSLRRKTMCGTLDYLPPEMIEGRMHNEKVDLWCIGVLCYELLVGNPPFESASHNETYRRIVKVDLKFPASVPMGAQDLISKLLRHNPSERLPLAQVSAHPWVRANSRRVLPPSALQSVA

In the case of `CCN(CCCOc1cc2ncnc(Nc3cnc(NC(=O)c4ccc(F)c(Cl)c4)nc3)c2cc1OC)CCOP(=O)(O)O` [Compound 24, 2-[(3-{[4-({2-[(3-chloro-4-fluorobenzoyl)amino]pyrimidin-5-yl}amino)-6-methoxyquinazolin-7-yl]oxy}propyl)(ethyl)amino]ethyl dihydrogen phosphate], the “concentration active in cell cycle analysis test” value in the test on SW620 cells [1] is 1.5 µM. Also, the IC50 was 0.3 nM against Aurora-A, 12.3 nM at Aurora-B and 300 nM with SW620 cells [2].
